Assays:
recombinant human apoM = molecular target: T1, recombinant human apoM (Homo sapiens, UniProt O95445); settings: recombinant human apoM expressed in E. coli; SEVVANA et al. 2009; read-out: IC50 for displacement of myristic acid from apoM; cited from earlier work
T1 construct: host or cells: E. coli

[1] = molecular target: T2, murine recombinant apoM (r-apoM) (Mus musculus, UniProt Q9Z1R3); assay: intrinsic fluorescence quenching of r-apoM by S1P; format: binding; settings: r-apoM 0.7 μM; S1P 0-3.2 μmol/L; excitation 295 nm, emission 345 nm
T2 construct: A truncated mouse r-apoM containing the lipocalin domain but lacking the hydrophobic signal peptide was produced in Escherichia coli; made in house; host or cells: Escherichia coli
T2 sequence (Q9Z1R3 22-190): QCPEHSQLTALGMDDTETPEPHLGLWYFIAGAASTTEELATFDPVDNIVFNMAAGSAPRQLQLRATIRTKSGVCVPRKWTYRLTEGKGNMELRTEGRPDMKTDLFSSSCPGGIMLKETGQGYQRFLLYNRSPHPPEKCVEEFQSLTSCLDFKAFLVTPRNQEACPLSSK
Method: FIG. 3. […] A truncated mouse r-apoM containing the lipocalin domain but lacking the hydrophobic signal peptide was produced in Escherichia coli. The r-apoM (0.7 μM) was incubated with increasing concentrations of S1P (final concentration: 0-3.2 μmol/L). The intrinsic fluorescence of apoM was measured with excitation at 295 nm and emission at 345 nm. The data are mean±SEM (n=3).
Intrinsic fluorescence quenching was studied after addition of S1P to 0.7 μM murine recombinant apoM (r-apoM) (SEVVANA et al., J. Mol. Biol, 393:920-936 (2009)). Because it is possible that murine r-apoM binds and contains myristic acid in a manner similar to that of its human counterpart (SEVVANA et al., J. Mol. Biol, 393:920-936 (2009)), the binding data are reported as IC50 values. This approach also allows S1P binding to murine r-apoM to be compared directly with the previous data on human apoM-S1P binding.

HUVEC [2] = assay: HUVEC migration (chemotaxis chamber) assay; format: cell-based, human
Method: FIG. 4. ApoM-bound S1P activates S1P1-mediated intracellular signaling pathways and affects migration of HUVEC. (A) Confocal microscopy of HEK293 cells stably expressing S1P1-GFP. Cells were serum starved, stimulated for 1 h with indicated ligands, fixed and imaged. ApoM^+HDL (equivalent to ˜100 nM S1P as determined by LC/MS/MS) or ApoM^−HDL was used at 100 μg/ml. Fatty acid free BSA and r-apoM were complexed with S1P and used at the final concentration of 100 nM (equimolar for both protein and lipid). Scale bar, 20 μm. […] Activation of p44/42, and Akt was examined by western blot analysis using phospho-specific antibodies. (C) HUVEC were serum starved and pre-treated with 1 μM VPC44116 for 30 min where indicated and subjected to migration assay with 10 μg/ml apoM^+HDL (10 nM S1P) or 10 μg/ml apoM^−HDL or 10 nM albumin-S1P. Data are mean±SD, n=3. * p<0.01. (D) Microscopy of HUVEC that were serum starved and stimulated with 100 μg/ml apoM^+HDL, apoM^−HDL, 100 nM albumin-S1P, r-apoM-S1P or 100 nM S1P-free r-apoM for 1 h. […] Scale bar, 20 μm. […]
General Methods. […] Numerical differences were analyzed with two-tailed Student's t test.
Migration Assays. […] The filter was scanned, and the color density of each well was quantified using ImageJ software. […]

endogenous S1P1 receptor = assay: p44/42 and Akt activation in HUVEC (western blot, phospho-specific antibodies); format: cell-based, human; settings: 1 μM VPC44116 pre-treatment 30 min
Method: (§1) FIG. 4. ApoM-bound S1P activates S1P1-mediated intracellular signaling pathways and affects migration of HUVEC. (A) Confocal microscopy of HEK293 cells stably expressing S1P1-GFP. Cells were serum starved, stimulated for 1 h with indicated ligands, fixed and imaged. ApoM^+HDL (equivalent to ˜100 nM S1P as determined by LC/MS/MS) or ApoM^−HDL was used at 100 μg/ml. Fatty acid free BSA and r-apoM were complexed with S1P and used at the final concentration of 100 nM (equimolar for both protein and lipid). Scale bar, 20 μm. […] Activation of p44/42, and Akt was examined by western blot analysis using phospho-specific antibodies. (C) HUVEC were serum starved and pre-treated with 1 μM VPC44116 for 30 min where indicated and subjected to migration assay with 10 μg/ml apoM^+HDL (10 nM S1P) or 10 μg/ml apoM^−HDL or 10 nM albumin-S1P. Data are mean±SD, n=3. * p<0.01. (D) Microscopy of HUVEC that were serum starved and stimulated with 100 μg/ml apoM^+HDL, apoM^−HDL, 100 nM albumin-S1P, r-apoM-S1P or 100 nM S1P-free r-apoM for 1 h. […] Scale bar, 20 μm. HUVEC were serum starved and stimulated for 5 min with 30 nM albumin-S1P, r-apoM-S1P, 10 μg/mL ApoM+ HDL, or 30 nM S1P-free r-apoM (E) or with increasing concentrations of albumin or r-apoM-S1P (F). […]
(§2) General Methods. […] Numerical differences were analyzed with two-tailed Student's t test. […]

HUVEC [3] = assay: adherens junction assembly assay (VE-cadherin immunostaining) in HUVEC; format: cell-based, human; settings: HUVEC stimulated 1 h; HDL 100 μg/ml; S1P complexes or r-apoM 100 nM
Method: as §1, with “(F). Activation of p44/42 and Akt was examined by Western blot analysis using phospho-specific antibodies.” for “(F).”

S1P1 receptor = molecular target: T3, S1P1 receptor (Homo sapiens, UniProt P21453); assay: S1P1 internalization in HEK293 cells stably expressing S1P1-GFP; format: cell-based; settings: stimulated 1 h; HDL 100 μg/ml; S1P complexes 100 nM
T3 construct: expressed in transfected cells
T3 sequence (P21453 whole entry): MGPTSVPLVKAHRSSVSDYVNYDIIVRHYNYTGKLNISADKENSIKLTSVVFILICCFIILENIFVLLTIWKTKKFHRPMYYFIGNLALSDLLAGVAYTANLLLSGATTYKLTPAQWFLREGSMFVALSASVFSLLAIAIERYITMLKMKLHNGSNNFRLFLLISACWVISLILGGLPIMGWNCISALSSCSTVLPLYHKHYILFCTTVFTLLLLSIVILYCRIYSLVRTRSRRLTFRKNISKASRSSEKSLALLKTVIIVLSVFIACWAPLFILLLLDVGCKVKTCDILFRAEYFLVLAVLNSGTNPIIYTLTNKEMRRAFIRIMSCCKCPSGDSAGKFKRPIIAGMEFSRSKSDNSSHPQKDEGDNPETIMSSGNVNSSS
Method: as §1, §2

T1 sequence (O95445 whole entry): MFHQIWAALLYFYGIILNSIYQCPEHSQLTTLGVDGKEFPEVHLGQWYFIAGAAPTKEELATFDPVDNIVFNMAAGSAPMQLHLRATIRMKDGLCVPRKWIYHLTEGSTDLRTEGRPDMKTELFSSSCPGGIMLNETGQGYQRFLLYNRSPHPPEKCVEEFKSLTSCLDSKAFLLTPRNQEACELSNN

CCCCCCCCCCCCC/C=C/[C@@H](O)[C@@H](N)COP(=O)(O)O [S1P, Sphingosine-1-phosphate]
IC50 (recombinant human apoM): 0.9 µM | quenching of intrinsic fluorescence of mouse r-apoM [1]: quenches the intrinsic fluorescence

CCCCCCCCc1cccc(NC(=O)[C@H](N)CCP(=O)(O)O)c1 [VPC44116]
effect of S1P1 antagonist pre-treatment on apoM+HDL-stimulated chemotaxis (HUVEC [2]; 1 μM VPC44116 for 30 min, 10 μg/ml apoM+HDL): abolished | effect of S1P1 antagonist on apoM+HDL-induced p44/42 and Akt phosphorylation (endogenous S1P1 receptor): essentially abolished | effect of S1P1 antagonist on cells stimulated by FCS (endogenous S1P1 receptor; FCS stimulation): no inhibitory effects

albumin-bound S1P: S1P complexed with equi-molar fatty acid free bovine serum albumin, used as a positive control [reference compound]
chemotaxis of HUVEC toward chemoattractant (HUVEC [2]; serum-starved HUVEC, 4 h at 37° C.): worked as chemoattractants in a concentration-dependent manner | adherens junction and F-actin formation (HUVEC [3]): well-spread, contained F-actin and formed adherens junctions | internalization of GFP-S1P1 receptor (S1P1 receptor): robust internalization
